This is an account of results in patent US11427548B2 (Arvinas Operations, Inc., priority 2015, dated 2022).

Read-outs that look alike come from different tables or passages of the source. Some results are limits rather than exact numbers.

For the assay, the target named is T1, Androgen Receptor (Homo sapiens, UniProt P10275).
T1 construct: endogenous in cells; host or cells: VCaP cells
T1 sequence (P10275 1-920): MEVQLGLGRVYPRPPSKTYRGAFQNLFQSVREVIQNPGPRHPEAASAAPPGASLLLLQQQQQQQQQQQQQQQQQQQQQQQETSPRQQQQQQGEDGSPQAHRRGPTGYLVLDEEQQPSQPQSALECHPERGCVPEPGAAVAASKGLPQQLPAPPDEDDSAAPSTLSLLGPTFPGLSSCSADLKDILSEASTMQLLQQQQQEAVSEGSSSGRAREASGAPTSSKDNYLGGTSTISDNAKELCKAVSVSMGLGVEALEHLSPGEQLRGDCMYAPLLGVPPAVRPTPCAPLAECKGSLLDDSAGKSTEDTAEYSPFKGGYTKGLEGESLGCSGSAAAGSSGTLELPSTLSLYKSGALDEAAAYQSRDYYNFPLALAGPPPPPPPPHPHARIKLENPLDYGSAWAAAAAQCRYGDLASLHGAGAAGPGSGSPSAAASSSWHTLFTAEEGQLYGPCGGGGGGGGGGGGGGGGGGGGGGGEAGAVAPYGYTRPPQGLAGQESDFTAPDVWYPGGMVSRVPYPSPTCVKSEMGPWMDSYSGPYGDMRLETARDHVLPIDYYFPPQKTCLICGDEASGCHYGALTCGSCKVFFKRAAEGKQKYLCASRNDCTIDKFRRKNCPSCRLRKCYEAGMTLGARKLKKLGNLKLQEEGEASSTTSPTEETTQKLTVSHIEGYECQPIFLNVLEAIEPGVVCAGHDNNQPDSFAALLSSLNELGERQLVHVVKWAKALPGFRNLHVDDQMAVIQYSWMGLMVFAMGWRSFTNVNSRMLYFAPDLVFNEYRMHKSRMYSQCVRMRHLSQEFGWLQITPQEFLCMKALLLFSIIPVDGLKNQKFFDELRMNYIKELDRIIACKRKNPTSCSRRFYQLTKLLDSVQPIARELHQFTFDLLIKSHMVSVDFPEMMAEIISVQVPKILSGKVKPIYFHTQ
The assay can be described thus: Androgen Receptor ELISA assay (PathScan AR ELISA) in VCaP cells: AR degradation, Dmax and DC50. It is filed as cell-based. In outline:
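VCaP cells, 30,000/well, grown ≥3 days in phenol red-free RPMI with 5% charcoal-stripped FBS; compound added in 0.1% DMSO with 0.1 nM R1881, 7 half-log doses, 24 h. Lysate AR quantified by PathScan sandwich ELISA, HRP/TMB read at 450 nm, giving DC50 and Dmax.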
A general note: In an ELISA, binding on a coated surface is turned into a signal by an enzyme label.

Where [1] appears, read: VCaP cells; Table 36; read-out: VCaP DC50.
Where [2] appears, read: VCaP, VCaP cells; Table 36; read-out: VCaP Dmax (%).
The mark [3] stands for this setting: read-out: VCaP DC50; VCaP cells; Table 36.

For `Cc1ncsc1-c1ccc([C@H](C)NC(=O)[C@@H]2C[C@@H](O)CN2C(=O)[C@H](c2cc(CCCN3CCN(c4ccc(C(=O)N[C@H]5C(C)(C)[C@H](Oc6ccc(C#N)c(Cl)c6)C5(C)C)cn4)CC3)no2)C(C)C)cc1` [Example 818, N-((1r,3r)-3-(3-chloro-4-cyanophenoxy)-2,2,4,4-tetramethylcyclobutyl)-6-(4-(3-(5-((S)-1-((2S, 4R)-4-hydroxy-2-(((S)-1-(4-(4-methylthiazol-5-yl)phenyl)ethyl)carbamoyl)pyrrolidin-1-yl)-3-methyl-1-oxobutan-2-yl)isoxazol-3-yl)propyl)piperazin-1-yl) nicotinamide], the 50% degradation concentration (DC50) under setting [1] was over 0.501 µM. Further, under setting [2], the Dmax was under 25%.

On to `Cc1ncsc1-c1ccc([C@H](C)NC(=O)[C@@H]2C[C@@H](O)CN2C(=O)[C@@H](c2cc(CCCN3CCN(c4ccc(C(=O)N[C@H]5C(C)(C)[C@H](Oc6ccc(C#N)c(Cl)c6)C5(C)C)cn4)CC3)no2)C(C)C)cc1` [Example 819, N-((1r,3r)-3-(3-chloro-4-cyanophenoxy)-2,2,4,4-tetramethylcyclobutyl)-6-(4-(3-(5-((R)-1-((2S, 4R)-4-hydroxy-2-(((S)-1-(4-(4-methylthiazol-5-yl)phenyl)ethyl)carbamoyl)pyrrolidin-1-yl)-3-methyl-1-oxobutan-2-yl)isoxazol-3-yl)propyl)piperazin-1-yl) nicotinamide], for which the DC50 under setting [1] was under 0.05 µM. Further, the Dmax under setting [2] was over 71%.

Consider `Cc1ncsc1-c1ccc([C@H](CO)NC(=O)[C@@H]2C[C@@H](O)CN2C(=O)[C@@H](NC(=O)CN2CCN(CCCc3ccc(C(=O)N[C@H]4C(C)(C)[C@H](Oc5ccc(C#N)c(Cl)c5)C4(C)C)cc3)CC2)C(C)(C)C)cc1` [Example 820, (2S,4R)-1-((S)-2-(2-(4-(3-(4-(((1r,3r)-3-(3-chloro-4-cyanophenoxy)-2,2,4,4-tetramethylcyclobutyl)carbamoyl)phenyl)propyl)piperazin-1-yl)acetamido)-3,3-dimethylbutanoyl)-4-hydroxy-N-((R)-2-hydroxy-1-(4-(4-methylthiazol-5-yl)phenyl)ethyl) pyrrolidine-2-carboxamide], for which, under setting [1], the DC50 is under 0.05 µM. Further, the Dmax under setting [2] is over 71%.

With `Cc1ncsc1-c1ccc([C@H](CO)NC(=O)[C@@H]2C[C@@H](O)CN2C(=O)[C@@H](NC(=O)COCCN2C3CCC2CN(c2ccc(C(=O)N[C@H]4C(C)(C)[C@H](Oc5ccc(C#N)c(Cl)c5)C4(C)C)cn2)C3)C(C)(C)C)cc1` [Example 821, N-((1r,3r)-3-(3-chloro-4-cyanophenoxy)-2,2,4,4-tetramethylcyclobutyl)-6-(8-(2-(2-(((S)-1-((2S, 4R)-4-hydroxy-2-(((R)-2-hydroxy-1-(4-(4-methylthiazol-5-yl)phenyl)ethyl)carbamoyl)pyrrolidin-1-yl)-3,3-dimethyl-1-oxobutan-2-yl)amino)-2-oxoethoxy)ethyl)-3,8-diazabicyclo [3.2.1]octan-3-yl) nicotinamide], under “VCaP, read-out: VCaP Dmax (%)”, the Dmax was over 71%. Under setting [3], the DC50 is under 0.05 µM.

With `Cc1ncsc1-c1ccc([C@H](CO)NC(=O)C2C[C@@H](O)CN2C(=O)[C@@H](NC(=O)COCCN2CCCN(c3ccc(C(=O)NC4C(C)(C)C(Oc5ccc(C#N)c(Cl)c5)C4(C)C)cn3)CC2)C(C)(C)C)cc1` (stereo partly drawn) [Example 822, N-((1r,3r)-3-(3-chloro-4-cyanophenoxy)-2,2,4,4-tetramethylcyclobutyl)-6-(4-(2-(2-(((S)-1-((2S, 4R)-4-hydroxy-2-(((R)-2-hydroxy-1-(4-(4-methylthiazol-5-yl)phenyl)ethyl)carbamoyl)pyrrolidin-1-yl)-3,3-dimethyl-1-oxobutan-2-yl)amino)-2-oxoethoxy)ethyl)-1,4-diazepan-1-yl) nicotinamide], the DC50 under setting [1] is under 0.05 µM. Besides, under setting [2], the Dmax was over 71%.

Take `Cc1ncsc1-c1ccc([C@H](C)NC(=O)[C@@H]2C[C@@H](O)CN2C(=O)[C@@H](NC(=O)CN2CCN(CCCc3ccc(C(=O)N[C@H]4C(C)(C)[C@H](Oc5ccc(C#N)c(Cl)c5)C4(C)C)cc3)[C@@H](CO)C2)C(C)(C)C)cc1` [Example 823, (2S,4R)-1-((S)-2-(2-((R)-4-(3-(4-(((1r,3R)-3-(3-chloro-4-cyanophenoxy)-2,2,4,4-tetramethylcyclobutyl)carbamoyl)phenyl)propyl)-3-(hydroxymethyl)piperazin-1-yl)acetamido)-3,3-dimethylbutanoyl)-4-hydroxy-N-((S)-1-(4-(4-methylthiazol-5-yl)phenyl)ethyl) pyrrolidine-2-carboxamide]: the DC50 under setting [1] was under 0.05 µM. Also, the Dmax (VCaP, read-out: VCaP Dmax (%)) is over 71%.

Take `Cc1ncsc1-c1ccc([C@H](C)NC(=O)[C@@H]2C[C@@H](O)CN2C(=O)[C@@H](NC(=O)CN2CCN(CCCc3ccc(C(=O)N[C@H]4C(C)(C)[C@H](Oc5ccc(C#N)c(Cl)c5)C4(C)C)cc3)[C@H](CO)C2)C(C)(C)C)cc1` [Example 824, (2S,4R)-1-((S)-2-(2-((S)-4-(3-(4-(((1r,3S)-3-(3-chloro-4-cyanophenoxy)-2,2,4,4-tetramethylcyclobutyl)carbamoyl)phenyl)propyl)-3-(hydroxymethyl)piperazin-1-yl)acetamido)-3,3-dimethylbutanoyl)-4-hydroxy-N-((S)-1-(4-(4-methylthiazol-5-yl)phenyl)ethyl) pyrrolidine-2-carboxamide]: the DC50 under setting [1] is under 0.05 µM. The Dmax (VCaP, read-out: VCaP Dmax (%)) was over 71%.

On to `Cc1ncsc1-c1ccc([C@H](C)NC(=O)[C@@H]2C[C@@H](O)CN2C(=O)[C@@H](NC(=O)CN2CCC(CN3CCN(c4ccc(C(=O)N[C@H]5C(C)(C)[C@H](Oc6ccc(C#N)c(Cl)c6)C5(C)C)cn4)CC3)CC2)C(C)(C)C)cc1` [Example 825, N-((1r,3r)-3-(3-chloro-4-cyanophenoxy)-2,2,4,4-tetramethylcyclobutyl)-6-(4-((1-(2-(((S)-1-((2S,4R)-4-hydroxy-2-(((S)-1-(4-(4-methylthiazol-5-yl)phenyl)ethyl)carbamoyl)pyrrolidin-1-yl)-3,3-dimethyl-1-oxobutan-2-yl)amino)-2-oxoethyl)piperidin-4-yl)methyl)piperazin-1-yl)nicotinamide], for which the DC50 under setting [1] was under 0.05 µM. Also, the Dmax (VCaP, read-out: VCaP Dmax (%)) is over 71%.

In the case of `Cc1ncsc1-c1ccc([C@H](CO)NC(=O)[C@@H]2C[C@@H](O)CN2C(=O)[C@@H](NC(=O)COCCN2[C@H](C)CN(c3ccc(C(=O)N[C@H]4C(C)(C)[C@H](Oc5ccc(C#N)c(Cl)c5)C4(C)C)cn3)C[C@@H]2C)C(C)(C)C)cc1` [Example 826, N-((1r,3R)-3-(3-chloro-4-cyanophenoxy)-2,2,4,4-tetramethylcyclobutyl)-6-((3S,5R)-4-(2-(2-(((S)-1-((2S,4R)-4-hydroxy-2-(((R)-2-hydroxy-1-(4-(4-methylthiazol-5-yl)phenyl)ethyl)carbamoyl)pyrrolidin-1-yl)-3,3-dimethyl-1-oxobutan-2-yl)amino)-2-oxoethoxy)ethyl)-3,5-dimethylpiperazin-1-yl)nicotinamide], the DC50 under setting [1] is under 0.05 µM. For the setting “VCaP, read-out: VCaP Dmax (%), VCaP cells; Table 36”, the greatest degradation seen (Dmax) was over 71%.

Regarding `Cc1ncsc1-c1ccc([C@H](C)NC(=O)C2C[C@@H](O)CN2C(=O)C(NC(=O)CN2CCC(CCN3CCN(c4ccc(C(=O)NC5C(C)(C)C(Oc6ccc(C#N)c(Cl)c6)C5(C)C)cn4)CC3)CC2)C(C)(C)C)cc1` (stereo partly drawn) [Example 827, N-((1r,3r)-3-(3-chloro-4-cyanophenoxy)-2,2,4,4-tetramethylcyclobutyl)-6-(4-(2-(1-(2-(((S)-1-((2S,4R)-4-hydroxy-2-(((S)-1-(4-(4-methylthiazol-5-yl)phenyl)ethyl)carbamoyl)pyrrolidin-1-yl)-3,3-dimethyl-1-oxobutan-2-yl)amino)-2-oxoethyl)piperidin-4-yl)ethyl)piperazin-1-yl)nicotinamide], the 50% degradation concentration (DC50) under setting [1] was under 0.05 µM. For the same molecule, the Dmax under setting [2] was over 71%.

Consider `Cc1ncsc1-c1ccc([C@H](CO)NC(=O)C2C[C@@H](O)CN2C(=O)C(NC(=O)CN2C3CCC2CN(CCCc2ccc(C(=O)NC4C(C)(C)C(Oc5ccc(C#N)c(Cl)c5)C4(C)C)cc2)C3)C(C)(C)C)cc1` (stereo partly drawn) [Example 828, (2S,4R)-1-((2S)-2-(2-(3-(3-(4-(((1r,3r)-3-(3-chloro-4-cyanophenoxy)-2,2,4,4-tetramethylcyclobutyl)carbamoyl)phenyl)propyl)-3,8-diazabicyclo[3.2.1]octan-8-yl)acetamido)-3,3-dimethylbutanoyl)-4-hydroxy-N-((R)-2-hydroxy-1-(4-(4-methylthiazol-5-yl)phenyl)ethyl) pyrrolidine-2-carboxamide], for which, where the note is “VCaP, read-out: VCaP Dmax (%)”, the Dmax was over 71%. In addition, the DC50 under setting [3] is under 0.05 µM.

A word on the DC50: it is the midpoint of the concentration-degradation curve. A word on the Dmax: it is the largest share of the target that was removed.
